{"source": "ChEMBL document CHEMBL1138574", "about": "“Regioselective synthesis and stereochemical structure of anti-tumor active dispiro[3H-indole-3,2'-pyrrolidine-3',3''-piperidine]-2(1H),4''-diones” (2009)", "format_in_all_cases": "functional", "conditions_in_all_cases": "route intraperitoneal", "key": {"[1]": {"tested_on": "Rattus norvegicus", "assay": "Antiinflammatory activity in Wister albino rat assessed as inhibition of carrageenan-induced paw oedema at 50 mg/kg, ip administered 1 hr before carrageenan challenge measured after 2 hrs of induction of inflammation relative to control"}, "[2]": {"tested_on": "Rattus norvegicus", "assay": "Antiinflammatory activity in Wister albino rat assessed as inhibition of carrageenan-induced paw oedema at 50 mg/kg, ip administered 1 hr before carrageenan challenge measured after 24 hrs of induction of inflammation relative to control"}, "[3]": {"tested_on": "Rattus norvegicus", "assay": "Antiinflammatory activity in Wister albino rat assessed as inhibition of carrageenan-induced paw oedema at 50 mg/kg, ip administered 1 hr before carrageenan challenge measured after 4 hrs of induction of inflammation relative to indomethacin"}, "[4]": {"tested_on": "Rattus norvegicus", "assay": "Antiinflammatory activity in Wister albino rat assessed as inhibition of carrageenan-induced paw oedema at 50 mg/kg, ip administered 1 hr before carrageenan challenge measured after 4 hrs of induction of inflammation relative to control"}, "[5]": {"tested_on": "Rattus norvegicus", "assay": "Antiinflammatory activity in Wister albino rat assessed as inhibition of carrageenan-induced paw oedema at 50 mg/kg, ip administered 1 hr before carrageenan challenge measured after 1 hr of induction of inflammation relative to control"}, "[6]": {"tested_on": "Rattus norvegicus", "assay": "Antiinflammatory activity in Wister albino rat assessed as inhibition of carrageenan-induced paw oedema at 50 mg/kg, ip administered 1 hr before carrageenan challenge measured after 3 hrs of induction of inflammation relative to control"}, "[7]": {"tested_on": "Rattus norvegicus", "assay": "Antiinflammatory activity in Wister albino rat assessed as inhibition of carrageenan-induced paw oedema at 10 mg/kg, ip administered 1 hr before carrageenan challenge measured after 1 hr of induction of inflammation relative to control"}, "[8]": {"tested_on": "Rattus norvegicus", "assay": "Antiinflammatory activity in Wister albino rat assessed as inhibition of carrageenan-induced paw oedema at 10 mg/kg, ip administered 1 hr before carrageenan challenge measured after 3 hrs of induction of inflammation relative to control"}, "[9]": {"tested_on": "Rattus norvegicus", "assay": "Antiinflammatory activity in Wister albino rat assessed as inhibition of carrageenan-induced paw oedema at 10 mg/kg, ip administered 1 hr before carrageenan challenge measured after 4 hrs of induction of inflammation relative to control"}, "[10]": {"tested_on": "Rattus norvegicus", "assay": "Antiinflammatory activity in Wister albino rat assessed as inhibition of carrageenan-induced paw oedema at 10 mg/kg, ip administered 1 hr before carrageenan challenge measured after 24 hrs of induction of inflammation relative to control"}, "[11]": {"tested_on": "Rattus norvegicus", "assay": "Antiinflammatory activity in Wister albino rat assessed as inhibition of carrageenan-induced paw oedema at 10 mg/kg, ip administered 1 hr before carrageenan challenge measured after 2 hrs of induction of inflammation relative to control"}}, "data": [{"smiles": "CN1C/C(=C\\c2ccc(F)cc2)C(=O)[C@]2(C1)[C@@H](c1ccc(F)cc1)CN(C)[C@@]21C(=O)N(C)c2ccccc21", "values": [{"measurement": "inhibition in vivo at 50 mg/kg", "setting": "[1]", "value": 62, "unit": "%"}, {"measurement": "inhibition in vivo at 50 mg/kg", "setting": "[2]", "value": 27.2, "unit": "%"}, {"measurement": "inhibition in vivo at 50 mg/kg", "setting": "[3]", "value": 83.5, "unit": "%"}, {"measurement": "inhibition in vivo at 50 mg/kg", "setting": "[4]", "value": 47.2, "unit": "%"}, {"measurement": "inhibition in vivo at 50 mg/kg", "setting": "[5]", "value": 75.8, "unit": "%"}, {"measurement": "inhibition in vivo at 50 mg/kg", "setting": "[6]", "value": 55.8, "unit": "%"}]}, {"smiles": "COc1ccc2c(c1)c(CC(=O)O)c(C)n2C(=O)c1ccc(Cl)cc1", "note": "[INDOMETHACIN]", "values": [{"measurement": "inhibition in vivo at 10 mg/kg", "setting": "[7]", "value": 72.9, "unit": "%"}, {"measurement": "inhibition in vivo at 10 mg/kg", "setting": "[8]", "value": 61.3, "unit": "%"}, {"measurement": "inhibition in vivo at 10 mg/kg", "setting": "[9]", "value": 56.5, "unit": "%"}, {"measurement": "inhibition in vivo at 10 mg/kg", "setting": "[10]", "value": 57, "unit": "%"}, {"measurement": "inhibition in vivo at 10 mg/kg", "setting": "[11]", "value": 70.7, "unit": "%"}]}, {"smiles": "Cc1ccc(/C=C2\\CN(C)C[C@@]3(C2=O)[C@@H](c2ccc(C)cc2)CN(C)[C@@]32C(=O)Nc3ccccc32)cc1", "values": [{"measurement": "inhibition in vivo at 50 mg/kg", "setting": "[1]", "value": 52.1, "unit": "%"}, {"measurement": "inhibition in vivo at 50 mg/kg", "setting": "[2]", "value": 22.1, "unit": "%"}, {"measurement": "inhibition in vivo at 50 mg/kg", "setting": "[3]", "value": 89.7, "unit": "%"}, {"measurement": "inhibition in vivo at 50 mg/kg", "setting": "[4]", "value": 50.7, "unit": "%"}, {"measurement": "inhibition in vivo at 50 mg/kg", "setting": "[5]", "value": 69.2, "unit": "%"}, {"measurement": "inhibition in vivo at 50 mg/kg", "setting": "[6]", "value": 50.9, "unit": "%"}]}, {"smiles": "CN1C/C(=C\\c2ccc(Br)cc2)C(=O)[C@]2(C1)[C@@H](c1ccc(Br)cc1)CN(C)[C@@]21C(=O)N(C)c2ccccc21", "values": [{"measurement": "inhibition in vivo at 50 mg/kg", "setting": "[1]", "value": 49.1, "unit": "%"}, {"measurement": "inhibition in vivo at 50 mg/kg", "setting": "[2]", "value": 83.5, "unit": "%"}, {"measurement": "inhibition in vivo at 50 mg/kg", "setting": "[3]", "value": 82.8, "unit": "%"}, {"measurement": "inhibition in vivo at 50 mg/kg", "setting": "[4]", "value": 46.8, "unit": "%"}, {"measurement": "inhibition in vivo at 50 mg/kg", "setting": "[5]", "value": 53.5, "unit": "%"}, {"measurement": "inhibition in vivo at 50 mg/kg", "setting": "[6]", "value": 47.6, "unit": "%"}]}, {"smiles": "CN1C/C(=C\\c2ccc(Br)cc2)C(=O)[C@]2(C1)[C@@H](c1ccc(Br)cc1)CN(C)[C@@]21C(=O)Nc2ccccc21", "values": [{"measurement": "inhibition in vivo at 50 mg/kg", "setting": "[1]", "value": 69.3, "unit": "%"}, {"measurement": "inhibition in vivo at 50 mg/kg", "setting": "[2]", "value": 82.7, "unit": "%"}, {"measurement": "inhibition in vivo at 50 mg/kg", "setting": "[3]", "value": 118, "unit": "%"}, {"measurement": "inhibition in vivo at 50 mg/kg", "setting": "[4]", "value": 66.8, "unit": "%"}, {"measurement": "inhibition in vivo at 50 mg/kg", "setting": "[5]", "value": 77.7, "unit": "%"}, {"measurement": "inhibition in vivo at 50 mg/kg", "setting": "[6]", "value": 65.2, "unit": "%"}]}, {"smiles": "CN1C/C(=C\\c2ccccc2)C(=O)[C@]2(C1)[C@@H](c1ccccc1)CN(C)[C@@]21C(=O)N(C)c2ccccc21", "values": [{"measurement": "inhibition in vivo at 50 mg/kg", "setting": "[1]", "value": 70.7, "unit": "%"}, {"measurement": "inhibition in vivo at 50 mg/kg", "setting": "[2]", "value": 26.5, "unit": "%"}, {"measurement": "inhibition in vivo at 50 mg/kg", "setting": "[3]", "value": 122, "unit": "%"}, {"measurement": "inhibition in vivo at 50 mg/kg", "setting": "[4]", "value": 68.8, "unit": "%"}, {"measurement": "inhibition in vivo at 50 mg/kg", "setting": "[5]", "value": 68, "unit": "%"}, {"measurement": "inhibition in vivo at 50 mg/kg", "setting": "[6]", "value": 75.6, "unit": "%"}]}, {"smiles": "CN1C/C(=C\\c2ccc(-c3cccs3)cc2)C(=O)[C@]2(C1)[C@@H](c1ccc(-c3cccs3)cc1)CN(C)[C@@]21C(=O)Nc2ccccc21", "values": [{"measurement": "inhibition in vivo at 50 mg/kg", "setting": "[1]", "value": 70.7, "unit": "%"}, {"measurement": "inhibition in vivo at 50 mg/kg", "setting": "[2]", "value": 79.8, "unit": "%"}, {"measurement": "inhibition in vivo at 50 mg/kg", "setting": "[3]", "value": 126, "unit": "%"}, {"measurement": "inhibition in vivo at 50 mg/kg", "setting": "[4]", "value": 71.4, "unit": "%"}, {"measurement": "inhibition in vivo at 50 mg/kg", "setting": "[5]", "value": 68, "unit": "%"}, {"measurement": "inhibition in vivo at 50 mg/kg", "setting": "[6]", "value": 74.8, "unit": "%"}]}, {"smiles": "CN1C/C(=C\\c2ccc(F)cc2)C(=O)[C@]2(C1)[C@@H](c1ccc(F)cc1)CN(C)[C@@]21C(=O)Nc2ccccc21", "values": [{"measurement": "inhibition in vivo at 50 mg/kg", "setting": "[1]", "value": 78.4, "unit": "%"}, {"measurement": "inhibition in vivo at 50 mg/kg", "setting": "[2]", "value": 57, "unit": "%"}, {"measurement": "inhibition in vivo at 50 mg/kg", "setting": "[3]", "value": 109, "unit": "%"}, {"measurement": "inhibition in vivo at 50 mg/kg", "setting": "[4]", "value": 61.5, "unit": "%"}, {"measurement": "inhibition in vivo at 50 mg/kg", "setting": "[5]", "value": 80.1, "unit": "%"}, {"measurement": "inhibition in vivo at 50 mg/kg", "setting": "[6]", "value": 70.9, "unit": "%"}]}, {"smiles": "CN1C/C(=C\\c2ccccc2)C(=O)[C@]2(C1)[C@@H](c1ccccc1)CN(C)[C@@]21C(=O)Nc2ccccc21", "values": [{"measurement": "inhibition in vivo at 50 mg/kg", "setting": "[1]", "value": 73.3, "unit": "%"}, {"measurement": "inhibition in vivo at 50 mg/kg", "setting": "[2]", "value": 65.1, "unit": "%"}, {"measurement": "inhibition in vivo at 50 mg/kg", "setting": "[3]", "value": 126, "unit": "%"}, {"measurement": "inhibition in vivo at 50 mg/kg", "setting": "[4]", "value": 70.9, "unit": "%"}, {"measurement": "inhibition in vivo at 50 mg/kg", "setting": "[5]", "value": 77, "unit": "%"}, {"measurement": "inhibition in vivo at 50 mg/kg", "setting": "[6]", "value": 71.4, "unit": "%"}]}, {"smiles": "Cc1ccc(/C=C2\\CN(C)C[C@@]3(C2=O)[C@@H](c2ccc(C)cc2)CN(C)[C@@]32C(=O)N(C)c3ccccc32)cc1", "values": [{"measurement": "inhibition in vivo at 50 mg/kg", "setting": "[1]", "value": 62, "unit": "%"}, {"measurement": "inhibition in vivo at 50 mg/kg", "setting": "[2]", "value": 57, "unit": "%"}, {"measurement": "inhibition in vivo at 50 mg/kg", "setting": "[3]", "value": 122, "unit": "%"}, {"measurement": "inhibition in vivo at 50 mg/kg", "setting": "[4]", "value": 68.8, "unit": "%"}, {"measurement": "inhibition in vivo at 50 mg/kg", "setting": "[5]", "value": 53.5, "unit": "%"}, {"measurement": "inhibition in vivo at 50 mg/kg", "setting": "[6]", "value": 65, "unit": "%"}]}]}
